Source: US20240285614A1, “PHENOL RIBONUCLEOTIDE REDUCTASE (RNR) INHIBITORS AND USES THEREOF” (Boundless Bio, Inc., priority 2023, published 2024)

Columns and labels:
RNR (RNR1:RNR2 1:1) = biological target: T1, RNR (RNR1:RNR2 1:1) (Homo sapiens, UniProt P23921+P31350); test: RNR enzyme activity, rapid-fire mass spectrometry (RF/MS) assay; type: biochemical; conditions: RNR 50 nM, 1:1 (RNR1:RNR2); CDP 5 μM; ATP 1 mM; 37° C., 45 min; compounds screened up to 50 μM
T1 sequence (P23921 1-792): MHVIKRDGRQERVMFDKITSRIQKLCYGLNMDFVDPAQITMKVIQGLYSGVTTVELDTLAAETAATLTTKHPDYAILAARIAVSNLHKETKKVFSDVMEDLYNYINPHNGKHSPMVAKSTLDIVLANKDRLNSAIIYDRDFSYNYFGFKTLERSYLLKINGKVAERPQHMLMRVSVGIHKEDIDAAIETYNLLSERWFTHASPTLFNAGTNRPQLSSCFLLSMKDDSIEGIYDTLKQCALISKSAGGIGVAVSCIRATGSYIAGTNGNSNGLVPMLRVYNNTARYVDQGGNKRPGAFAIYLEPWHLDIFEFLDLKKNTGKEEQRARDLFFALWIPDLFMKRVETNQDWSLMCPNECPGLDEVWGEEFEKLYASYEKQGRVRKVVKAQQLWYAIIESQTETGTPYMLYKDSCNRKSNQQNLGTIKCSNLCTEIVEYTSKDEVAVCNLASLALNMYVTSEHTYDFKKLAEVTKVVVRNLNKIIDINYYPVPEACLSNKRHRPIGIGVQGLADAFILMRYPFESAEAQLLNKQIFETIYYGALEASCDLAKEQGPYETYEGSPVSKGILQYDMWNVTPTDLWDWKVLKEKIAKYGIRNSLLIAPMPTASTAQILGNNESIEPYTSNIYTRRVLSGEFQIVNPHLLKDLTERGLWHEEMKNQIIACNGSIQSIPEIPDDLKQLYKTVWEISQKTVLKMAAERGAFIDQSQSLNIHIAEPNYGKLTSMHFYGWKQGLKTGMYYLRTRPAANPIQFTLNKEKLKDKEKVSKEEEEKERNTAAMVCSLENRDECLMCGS
T1 sequence (P31350 1-389): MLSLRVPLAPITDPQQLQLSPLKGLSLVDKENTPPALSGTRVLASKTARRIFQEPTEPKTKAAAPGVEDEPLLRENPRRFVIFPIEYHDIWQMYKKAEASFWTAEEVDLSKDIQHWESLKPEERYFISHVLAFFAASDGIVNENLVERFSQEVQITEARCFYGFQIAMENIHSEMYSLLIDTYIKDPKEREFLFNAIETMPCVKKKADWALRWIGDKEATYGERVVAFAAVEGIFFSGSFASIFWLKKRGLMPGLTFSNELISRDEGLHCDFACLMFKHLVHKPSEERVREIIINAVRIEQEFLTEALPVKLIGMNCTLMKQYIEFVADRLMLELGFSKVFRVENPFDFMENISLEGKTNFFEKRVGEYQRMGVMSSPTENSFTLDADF
Description: A rapid-fire mass spectrometry (RF/MS) assay was used to assess RNR enzyme activity using a 384 well plate and a robotic platform.
The plate layout included two validated reference compounds (Triapine (3-AP) and Hydroxyurea (HU)): • A dose response in duplicate, top concentration: 5 μM (3-AP) and 250 μM (HU), semi-log • dilutions. • Spike wells in triplicate randomly spotted at four concentrations: • 250 μM, 100 μM, 30 μM and 2 μM for HU • 5 μM, 2 μM, 0.6 μM and 0.04 μM for 3-AP
First, the multidrop pipes were saturated for 30 minutes with enzymatic solution. Then 30 μL of Stop solution was distributed in column 24. Next, 15 μL of enzyme was distributed in column 1 to 24. Next, a pre-incubation step of 15 minutes at room temperature occurred, followed by distribution of 15 μL of substrate solution (column 1 to 24). Next, the plate was incubated for 45 minutes at 37° C. 30 μL of Stop solution was distributed to columns 1 to 23.
The final parameters for the enzyme reactions were: • Incubation: 37° C., 45 min • [CDP]: 5 μM: [ATP]: 1 mM; [NADPH]: No • [RNR]final: 50 nM with 1:1 (RNR1:RNR2) ratio • Final volume: 30 μL • Stop solution: 6% HCOOH containing 2 μM of 15

[1] = system: pCHK1 (S345) in Colo320 DM cells; test: Alphalisa assay, detection of pCHK1 (S345) in Colo320 DM cells; type: cell-based; conditions: Homo sapiens, COLO 320DM, compound incubation overnight (approximately 16 hours)
Description: Colo320 DM cells (ATCC #CCL-220, derived from human colorectal adenocarcinoma, Dukes' type C) were seeded on a 96-well, cell culture treated assay plate at a density of 50,000 cells/well in 200 μL of RPMI-1640 media supplemented with 10% Fetal Bovine Serum and incubated at 37° C. overnight. The following day, test compound dilutions were added directly to the plated cells by a Tecan digital dispenser to a final DMSO concentration of <0.5%, and incubated at 37° C. overnight (approximately 16 hours). The following day all cull culture media was removed from the cells. 75 μL of 1× AlphaLisa lysis buffer was added to each well and plates were agitated on a shaker for 30 minutes at room temperature. The lysis of cells and detection of pCHK1 (S345) were performed with regents contained within the AlphaLisa Sure Fire assay kit (Perkin Elmer #ALSU-PCHK1-A) according to the manufacturer's instructions. 10 μL of each lysate was then transferred to a white, 384-well assay plate (Perkin Elmer #6008280), 5 μL of Acceptor mix was then added to each well of lysate in the white, 384-well assay plate and incubated in the dark at room temperature for 60 minutes. 5 μL of Donor mix was then added to each well of the white, 384-well assay plate in subdued light and incubated at room temperature for 60 minutes. Plates were read on an Alpha Technology-compatible plate reader using standard AlphaLisa settings.

Structure (SMILES) | IC50 (RNR (RNR1:RNR2 1:1)) [nM] | IC50 [1] [nM]
Cn1ccc2ccc(S(=O)(=O)N3CCN(c4ccc(O)cc4)CC3)cc21 [compound 3, 4-(4-((1-methyl-1H-indol-6-yl)sulfonyl)piperazin-1-yl)phenol] | 100 to 500 | 5000 to 10000
O=S(=O)(c1ccc2cc[nH]c2c1)N1CCN(c2ccc(O)cc2)CC1 [compound 2, 4-(4-((1H-indol-6-yl)sulfonyl)piperazin-1-yl)phenol] | 50 to 100 | 1000 to 5000
O=S(=O)(c1ccc2[nH]ccc2c1)N1CCN(c2ccc(O)cc2)CC1 [compound 9, 4-(4-((1H-indol-5-yl)sulfonyl)piperazin-1-yl)phenol] | 100 to 500 | 5000 to 10000
Cn1ccc2ccc(S(=O)(=O)N3CCC4(CCN(c5ccc(O)cc5)CC4)C3)cc21 [compound 41, 4-(2-((1-methyl-1H-indol-6-yl)sulfonyl)-2,8-diazaspiro[4.5]decan-8-yl)phenol] | 100 to 500 | 10000 to 50000
O=S(=O)(c1ccc2cc[nH]c2c1)N1CC(O)C(Nc2ccc(O)cc2)C1 (centres unmarked) [compound 44, 1-((1H-indol-6-yl)sulfonyl)-4-((4-hydroxyphenyl)amino) pyrrolidin-3-ol] | 50 to 100 | 5000 to 10000
O=S(=O)(c1ccc2cc[nH]c2c1)N1CC=C(c2ccc(O)cc2)CC1 [compound 8, 4-[1-(1H-indol-6-ylsulfonyl)-3,6-dihydro-2H-pyridin-4-yl]phenol] |  | 1000 to 5000
O=S(=O)(c1ccc2cc[nH]c2c1)N1C[C@H]2COC[C@@H](C1)N2c1ccc(O)cc1 [compound 17, 4-((1R,5S)-7-((1H-indol-6-yl)sulfonyl)-3-oxa-7,9-diazabicyclo[3.3.1]nonan-9-yl)phenol] | ≤ 50 | ≤ 1000
O=S(=O)(c1ccc2cc[nH]c2c1)N1CCN(c2ccc(O)cc2)CC12CCC2 [compound 46, 4-(5-((1H-indol-6-yl)sulfonyl)-5,8-diazaspiro[3.5]nonan-8-yl)phenol] | 50 to 100 | 1000 to 5000
O=S(=O)(c1ccc2cc[nH]c2c1)N1CCCN(c2ccc(O)cc2)CC1 [compound 14, 4-(4-((1H-indol-6-yl)sulfonyl)-1,4-diazepan-1-yl)phenol] | ≤ 50 | 5000 to 10000
O=S(=O)(NC1CN(c2ccc(O)cc2)C1)c1ccc2cc[nH]c2c1 [compound 10, N-(1-(4-hydroxyphenyl)azetidin-3-yl)-1H-indole-6-sulfonamide] | 50 to 100 | 1000 to 5000
Cn1ccc2cc(S(=O)(=O)N3CCN(c4ccc(O)cc4)CC3)cnc21 [compound 6, 4-(4-((1-methyl-1H-pyrrolo[2,3-b]pyridin-5-yl)sulfonyl)piperazin-1-yl)phenol] | 100 to 500 | 10000 to 50000
Cn1ccc2cc(S(=O)(=O)N3CCN(c4ccc(O)cc4)CC3)ccc21 [compound 4, 4-(4-((1-methyl-1H-indol-5-yl)sulfonyl)piperazin-1-yl)phenol] | 100 to 500 | 5000 to 10000
O=C1C[C@@H]2CN(S(=O)(=O)c3ccc4cc[nH]c4c3)C[C@H](C1)N2c1ccc(O)cc1 [compound 42, (1R,5S)-3-((1H-indol-6-yl)sulfonyl)-9-(4-hydroxyphenyl)-3,9-diazabicyclo[3.3.1]nonan-7-one] |  | 1000 to 5000
O=S(=O)(c1ccc2cc[nH]c2c1)N1CCN(c2ccc(O)cc2)CC12CC2 [compound 33, 4-(4-((1H-indol-6-yl)sulfonyl)-4,7-diazaspiro[2.5]octan-7-yl)phenol] |  | 1000 to 5000
O=S(=O)(c1ccc2cc[nH]c2c1)N1CCC2C1CCCN2c1ccc(O)cc1 (centres unmarked) [compound 49, 4-(1-((1H-indol-6-yl)sulfonyl)octahydro-4H-pyrrolo[3,2-b]pyridin-4-yl)phenol] |  | 1000 to 5000

Continued, values first:

IC50 (RNR (RNR1:RNR2 1:1)) [nM] | IC50 [1] [nM] | Structure (SMILES)
≤ 50 | 1000 to 5000 | CN(c1ccc(O)cc1)C1CN(S(=O)(=O)c2ccc3ccn(C)c3c2)C1 [compound 23, 4-(methyl(1-((1-methyl-1H-indol-6-yl)sulfonyl)azetidin-3-yl)amino)phenol]
≤ 50 | 1000 to 5000 | CN(c1ccc(O)cc1)C1CN(S(=O)(=O)c2ccc3cc[nH]c3c2)C2(CC2)C1 (racemic) [compound 38, rac-(R)-4-((4-((1H-indol-6-yl)sulfonyl)-4-azaspiro[2.4]heptan-6-yl)(methyl)amino)phenol]
100 to 500 | 10000 to 50000 | CN(c1ccc(O)cc1)C1CN(S(=O)(=O)c2ccc3cn[nH]c3c2)C1 [compound 18, 4-((1-((1H-indazol-6-yl)sulfonyl)azetidin-3-yl)(methyl)amino)phenol]
≤ 50 | ≤ 1000 | CN(c1ccc(O)cc1)C1CCN(S(=O)(=O)c2ccc3cc[nH]c3c2)C1 (racemic) [compound 20, rac-(R)-4-((1-((1H-indol-6-yl)sulfonyl)pyrrolidin-3-yl)(methyl)amino)phenol]
≤ 50 | 1000 to 5000 | C[C@@H]1CN(S(=O)(=O)c2ccc3cc[nH]c3c2)C[C@H]1N(C)c1ccc(O)cc1 (racemic) [compound 39, rac-4-(((3R,4S)-1-((1H-indol-6-yl)sulfonyl)-4-methylpyrrolidin-3-yl)(methyl)amino)phenol]
50 to 100 | 1000 to 5000 | CN(c1ccc(O)cc1)C1CN(S(=O)(=O)c2cccc3[nH]ccc23)C1 [compound 24, 4-((1-((1H-indol-4-yl)sulfonyl)azetidin-3-yl)(methyl)amino)phenol]
≤ 50 | 1000 to 5000 | O=S(=O)(c1ccc2cc[nH]c2c1)N1CC(Nc2ccc(O)cc2)C1 [compound 11, 4-((1-((1H-indol-6-yl)sulfonyl)azetidin-3-yl)amino)phenol]
100 to 500 | 10000 to 50000 | O=S(=O)(c1ccc2cc[nH]c2c1)N1CC[C@H](N(Cc2cccnc2)c2ccc(O)cc2)C1 [compound 50, (S)-4-((1-((1H-indol-6-yl)sulfonyl)pyrrolidin-3-yl)(pyridin-3-ylmethyl)amino)phenol]
 | 1000 to 5000 | C[C@H]1C[C@H](N(C)c2ccc(O)cc2)CN1S(=O)(=O)c1ccc2cc[nH]c2c1 (racemic) [compound 48, rac-4-(((3R,5R)-1-((1H-indol-6-yl)sulfonyl)-5-methylpyrrolidin-3-yl)(methyl)amino)phenol]
 | 1000 to 5000 | CN(c1ccc(O)cc1)C1CCN(S(=O)(=O)c2cc3[nH]c(Cl)cc3cc2F)C1 (racemic) [compound 32, rac-(R)-4-((1-((2-chloro-5-fluoro-1H-indol-6-yl)sulfonyl)pyrrolidin-3-yl)(methyl)amino)phenol]
